Patent US11834453B2, “Substituted pyrimido[5,4-d]pyrimidines as HER2 inhibitors” (Array BioPharma Inc., priority 2020, dated 2023)

Assays:
ErbB2 WT = ErbB2 WT (Homo sapiens (Human), UniProt P04626); experiment: ErbB enzyme assay (CisBio HTRF KinEASE-TK), Assay 2; assay type: biochemical
How it was run: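 Readout is HTRF KinEASE-TK, using Sa-XL665 and cryptate antibody for 1 h at 22 °C, as percent of control between DMSO-only (100) and pre-quenched (0) reactions. The kinase reaction runs 30 min at 22 °C with 1 mM ATP and 250 nM biotinylated TK substrate, in HEPES pH 7.4 with MgCl2 and 2% DMSO.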

EGFR wild type (EGFR WT) = EGFR wild type (EGFR WT) (Homo sapiens (Human), UniProt P00533); experiment: Cellular phosphorylation assay, EGF-stimulated EGFR phosphorylation in engineered NIH 3T3 cells, Phospho-EGFR DuoSet IC ELISA, Assay 5; assay type: cell-based
How it was run: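 Phospho-EGFR ELISA on lysates of engineered NIH 3T3 EGFR WT cells, IC50 derived from concentration curves. Cells plated at 20,000/well overnight, given compound dilutions 1 h at 37 °C, then rEGF 100 ng/ml for a further 10 min before lysis.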

EGFR = EGFR (Homo sapiens (Human), UniProt P00533); experiment: ErbB enzyme assay (CisBio HTRF KinEASE-TK), Assay 3; assay type: biochemical
How it was run: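 Using a time-resolved FRET read-out, tyrosine phosphorylation of 250 nM biotin substrate at 1 mM ATP (pH 7.4, 10 mM MgCl2, 2% DMSO, 22 °C, 30 min) was quantified against DMSO and pre-quenched controls; IC50 taken at 50% of control.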

[1] = target: ErbB2 with Exon 20 YVMA insertion (HER2-YVMA) (Homo sapiens (Human), UniProt P04626, INS775YVMA); experiment: Cellular phosphorylation assay, constitutive ErbB2 phosphorylation (Y1196) in engineered NIH 3T3 cells, Assay 4; assay type: cell-based
How it was run: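 In-cell Western in NIH 3T3 cells carrying ErbB2 exon 20 YVMA insertion, with no ligand stimulation. One hour compound exposure at 37 °C before fixation and anti-pY1196 plus GAPDH staining with dual-wavelength fluorescence. IC50 derived after GAPDH normalization.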

[2] = target: ErbB2 insYVMA (HER2-YVMA, SEQ ID NO: 2) (Homo sapiens, UniProt P04626, INS775YVMA/P1170A); experiment: biochemical; conditions: ErbB2 insYVMA enzyme assay; read-out: Assay 1 IC50
MDR1 (P-gp) = MDR1 (P-gp) (Homo sapiens (Human), UniProt P08183); experiment: MDR1 transfected MDCKII canine Mdr1 knockout permeability/efflux, Assay 7; conditions: dog, MDCK-MDR1
BCRP = BCRP (Homo sapiens (Human), UniProt Q9UNQ0); experiment: BCRP transfected MDCKII canine Mdr1 knockout permeability/efflux, Assay 9; conditions: dog
[3] = Assay 9 Pe Ratio, efflux ratio Papp(B-A)/Papp(A-B), BCRP transfected MDCKII canine Mdr1 knockout

BCRP, sequence (Q9UNQ0 whole entry): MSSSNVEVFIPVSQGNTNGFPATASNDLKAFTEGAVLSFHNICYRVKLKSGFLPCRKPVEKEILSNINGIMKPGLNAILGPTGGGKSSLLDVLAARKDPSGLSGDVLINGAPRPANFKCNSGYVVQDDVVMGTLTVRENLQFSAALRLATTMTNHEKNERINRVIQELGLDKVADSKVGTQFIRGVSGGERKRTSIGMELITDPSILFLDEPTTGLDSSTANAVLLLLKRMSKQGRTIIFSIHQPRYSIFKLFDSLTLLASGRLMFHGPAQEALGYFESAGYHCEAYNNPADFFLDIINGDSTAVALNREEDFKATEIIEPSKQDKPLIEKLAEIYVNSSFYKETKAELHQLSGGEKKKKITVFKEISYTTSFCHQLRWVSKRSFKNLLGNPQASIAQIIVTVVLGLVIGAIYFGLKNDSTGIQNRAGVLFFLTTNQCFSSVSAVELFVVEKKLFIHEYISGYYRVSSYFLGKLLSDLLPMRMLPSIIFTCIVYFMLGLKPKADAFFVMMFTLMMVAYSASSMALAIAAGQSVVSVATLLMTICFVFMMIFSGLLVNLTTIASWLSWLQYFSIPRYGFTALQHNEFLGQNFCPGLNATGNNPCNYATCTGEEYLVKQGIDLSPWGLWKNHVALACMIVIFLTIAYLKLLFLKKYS
ErbB2 with Exon 20 YVMA insertion (HER2-YVMA), sequence (P04626 other isoform, or with tags, fused parts or gaps ins YVMA behind 775): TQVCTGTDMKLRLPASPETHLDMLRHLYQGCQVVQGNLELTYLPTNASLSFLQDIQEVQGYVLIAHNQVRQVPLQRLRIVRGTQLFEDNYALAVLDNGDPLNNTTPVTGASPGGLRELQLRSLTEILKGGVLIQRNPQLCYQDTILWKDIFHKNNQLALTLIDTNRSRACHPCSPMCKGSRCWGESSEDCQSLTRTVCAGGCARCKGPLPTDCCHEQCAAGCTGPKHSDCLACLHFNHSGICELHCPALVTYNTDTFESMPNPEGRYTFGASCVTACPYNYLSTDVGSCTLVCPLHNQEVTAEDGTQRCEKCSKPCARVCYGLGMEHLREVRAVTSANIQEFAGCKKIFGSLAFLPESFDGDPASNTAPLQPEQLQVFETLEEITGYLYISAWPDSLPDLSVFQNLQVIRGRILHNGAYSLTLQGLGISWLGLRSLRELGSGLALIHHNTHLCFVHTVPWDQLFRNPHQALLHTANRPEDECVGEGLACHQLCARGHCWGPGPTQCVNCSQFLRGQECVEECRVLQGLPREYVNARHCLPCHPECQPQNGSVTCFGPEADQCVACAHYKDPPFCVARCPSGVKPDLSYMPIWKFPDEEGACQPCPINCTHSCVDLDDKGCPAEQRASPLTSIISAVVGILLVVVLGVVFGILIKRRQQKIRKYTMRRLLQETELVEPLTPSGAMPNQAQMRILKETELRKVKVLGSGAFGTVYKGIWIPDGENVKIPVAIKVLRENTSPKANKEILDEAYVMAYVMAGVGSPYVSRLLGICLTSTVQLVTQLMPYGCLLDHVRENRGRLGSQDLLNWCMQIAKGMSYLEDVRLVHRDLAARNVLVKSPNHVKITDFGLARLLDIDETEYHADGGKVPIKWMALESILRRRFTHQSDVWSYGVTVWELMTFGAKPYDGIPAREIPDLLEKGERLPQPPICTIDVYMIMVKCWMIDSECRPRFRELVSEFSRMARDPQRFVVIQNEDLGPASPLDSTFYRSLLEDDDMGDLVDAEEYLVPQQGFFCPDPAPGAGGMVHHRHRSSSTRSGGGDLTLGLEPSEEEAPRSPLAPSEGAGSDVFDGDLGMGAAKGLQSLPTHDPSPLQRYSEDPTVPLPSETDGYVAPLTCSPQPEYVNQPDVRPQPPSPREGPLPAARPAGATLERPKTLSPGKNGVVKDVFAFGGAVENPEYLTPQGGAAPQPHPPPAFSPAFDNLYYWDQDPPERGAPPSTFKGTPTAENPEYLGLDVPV
ErbB2 WT, sequence (P04626 23-1255): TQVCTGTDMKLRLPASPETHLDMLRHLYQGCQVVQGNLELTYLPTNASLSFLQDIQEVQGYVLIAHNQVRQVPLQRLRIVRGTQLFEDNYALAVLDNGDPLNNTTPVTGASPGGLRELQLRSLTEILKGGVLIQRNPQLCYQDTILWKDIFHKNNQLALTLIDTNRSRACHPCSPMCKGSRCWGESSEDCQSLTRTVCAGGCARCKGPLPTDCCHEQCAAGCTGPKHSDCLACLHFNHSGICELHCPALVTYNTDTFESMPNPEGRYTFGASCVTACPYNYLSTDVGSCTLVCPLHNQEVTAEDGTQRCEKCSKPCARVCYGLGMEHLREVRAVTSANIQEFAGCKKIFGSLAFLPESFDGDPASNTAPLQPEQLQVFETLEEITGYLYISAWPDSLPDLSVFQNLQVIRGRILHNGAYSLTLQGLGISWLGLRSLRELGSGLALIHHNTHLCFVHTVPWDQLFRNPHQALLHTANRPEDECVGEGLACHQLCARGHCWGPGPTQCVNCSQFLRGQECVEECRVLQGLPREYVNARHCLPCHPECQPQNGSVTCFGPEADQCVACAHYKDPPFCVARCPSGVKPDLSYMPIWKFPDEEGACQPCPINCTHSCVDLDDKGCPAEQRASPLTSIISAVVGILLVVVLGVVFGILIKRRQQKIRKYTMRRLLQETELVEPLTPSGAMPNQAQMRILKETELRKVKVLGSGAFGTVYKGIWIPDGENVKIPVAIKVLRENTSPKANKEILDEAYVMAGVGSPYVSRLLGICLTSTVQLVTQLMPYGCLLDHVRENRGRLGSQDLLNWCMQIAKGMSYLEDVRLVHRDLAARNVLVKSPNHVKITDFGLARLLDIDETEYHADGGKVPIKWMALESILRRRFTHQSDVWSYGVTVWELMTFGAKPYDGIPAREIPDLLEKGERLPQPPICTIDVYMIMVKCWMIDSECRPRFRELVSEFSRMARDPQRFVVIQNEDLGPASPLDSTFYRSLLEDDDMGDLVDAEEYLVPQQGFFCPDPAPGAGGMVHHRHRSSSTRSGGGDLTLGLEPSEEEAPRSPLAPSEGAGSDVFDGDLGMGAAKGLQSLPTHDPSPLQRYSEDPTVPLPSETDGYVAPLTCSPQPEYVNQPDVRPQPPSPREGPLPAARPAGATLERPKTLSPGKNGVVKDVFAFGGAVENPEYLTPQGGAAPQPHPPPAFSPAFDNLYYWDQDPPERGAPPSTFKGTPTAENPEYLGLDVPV
ErbB2 insYVMA (HER2-YVMA, SEQ ID NO: 2), sequence (P04626 with tags, fused parts or gaps INS775YVMA/P1170A limits assumed): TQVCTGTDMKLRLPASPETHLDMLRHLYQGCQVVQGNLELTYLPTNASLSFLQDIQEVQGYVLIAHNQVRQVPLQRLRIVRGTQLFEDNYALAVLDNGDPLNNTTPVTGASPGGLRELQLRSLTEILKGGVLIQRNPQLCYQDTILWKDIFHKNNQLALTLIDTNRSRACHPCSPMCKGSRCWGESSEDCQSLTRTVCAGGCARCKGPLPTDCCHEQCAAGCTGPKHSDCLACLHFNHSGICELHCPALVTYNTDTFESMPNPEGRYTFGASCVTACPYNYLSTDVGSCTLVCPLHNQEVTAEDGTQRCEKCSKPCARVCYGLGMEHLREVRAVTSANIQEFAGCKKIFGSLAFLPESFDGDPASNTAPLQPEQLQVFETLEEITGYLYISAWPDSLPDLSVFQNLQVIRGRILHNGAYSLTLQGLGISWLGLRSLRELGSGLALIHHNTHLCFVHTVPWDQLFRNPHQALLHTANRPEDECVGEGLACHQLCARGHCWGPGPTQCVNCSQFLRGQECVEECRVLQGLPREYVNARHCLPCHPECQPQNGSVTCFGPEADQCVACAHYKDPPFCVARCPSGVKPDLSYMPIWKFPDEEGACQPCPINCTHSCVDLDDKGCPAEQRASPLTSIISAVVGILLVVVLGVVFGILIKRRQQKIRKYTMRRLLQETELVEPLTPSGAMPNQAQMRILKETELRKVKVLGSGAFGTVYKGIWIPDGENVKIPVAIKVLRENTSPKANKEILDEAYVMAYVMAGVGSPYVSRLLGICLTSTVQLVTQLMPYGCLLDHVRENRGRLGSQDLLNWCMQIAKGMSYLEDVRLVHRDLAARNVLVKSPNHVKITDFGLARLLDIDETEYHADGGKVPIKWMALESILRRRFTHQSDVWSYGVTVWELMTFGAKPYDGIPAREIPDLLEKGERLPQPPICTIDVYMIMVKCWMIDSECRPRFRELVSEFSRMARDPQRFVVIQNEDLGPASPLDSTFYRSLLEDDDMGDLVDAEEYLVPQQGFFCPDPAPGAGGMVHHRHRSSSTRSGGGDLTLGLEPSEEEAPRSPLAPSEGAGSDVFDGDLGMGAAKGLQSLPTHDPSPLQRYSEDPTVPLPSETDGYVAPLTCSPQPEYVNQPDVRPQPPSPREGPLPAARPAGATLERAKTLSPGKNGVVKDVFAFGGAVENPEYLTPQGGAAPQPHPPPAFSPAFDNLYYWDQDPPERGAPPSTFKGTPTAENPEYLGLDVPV

Row | SMILES | IC50 (ErbB2 WT) [µM] | IC50 (EGFR wild type (EGFR WT)) [µM] | IC50 (EGFR) [µM] | IC50 [1] [µM] | IC50 [2] [µM] | efflux ratio at 2 h, 1 μM (MDR1 (P-gp)) | efflux ratio at 2 h, 1 μM (BCRP; [3]) | efflux ratio at 2 h, 1 μM (BCRP)
1 | CC(C)(O)[C@@H]1CCN(c2ncc3ncnc(Nc4ccc(Oc5ccn6ncnc6c5)c(Cl)c4)c3n2)C1 [Example 122, (R)-2-(1-(8-((4-([1,2,4]triazolo[1,5-a]pyridin-7-yloxy)-3-chlorophenyl)amino)pyrimido[5,4-d]pyrimidin-2-yl)pyrrolidin-3-yl)propan-2-ol] | 0.0227 | ≥ 5 | 0.953 | 0.0197 | 0.0152 | 1.7 | 7.3 | –
2 | Cc1cc(Nc2ncnc3cnc(N4CCC[C@@](C)(O)C4)nc23)ccc1Oc1ccc2c(c1)ncn2C [Example 196, (R)-3-methyl-1-(8-((3-methyl-4-((1-methyl-1H-benzo[d]imidazol-5-yl)oxy)phenyl)amino)pyrimido[5,4-d]pyrimidin-2-yl)piperidin-3-ol] | 0.0091 | ≥ 5 | 0.883 | 0.0087 | 0.0082 | 1.6 | 13.2 | –
3 | Cc1cc(Nc2ncnc3cnc(N4CC[C@@](C)(O)C4)nc23)ccc1Oc1ccc2c(c1)ncn2C [Example 154, (R)-3-methyl-1-(8-((3-methyl-4-((1-methyl-1H-benzo[d]imidazol-5-yl)oxy)phenyl)amino)pyrimido[5,4-d]pyrimidin-2-yl)pyrrolidin-3-ol] | 0.008 | ≥ 5 | 1.94 | 0.0157 | 0.0103 | 2.1 | 34 | –
4 | Cc1cc(Nc2ncnc3cnc(N4CCC5COCC54)nc23)ccc1Oc1ccc2c(c1)ncn2C (stereo not drawn) [Example 129, 6-(hexahydro-1H-furo[3,4-b]pyrrol-1-yl)-N-(3-methyl-4-((1-methyl-1H-benzo[d]imidazol-5-yl)oxy)phenyl)pyrimido[5,4-d]pyrimidin-4-amine] | 0.015 | ≥ 5 | 0.865 | 0.0076 | 0.0124 | 1.4 | 1.7 | –
5 | Cc1cc(Nc2ncnc3cnc(N4CC[C@@](C)(O)C4)nc23)c(F)cc1Oc1ccc2c(c1)ncn2C [Example 214, (R)-1-(8-((2-fluoro-5-methyl-4-((1-methyl-1H-benzo[d]imidazol-5-yl)oxy)phenyl)amino)pyrimido[5,4-d]pyrimidin-2-yl)-3-methylpyrrolidin-3-ol] | 0.0466 | ≥ 5 | ≥ 10 | 0.0281 | 0.0154 | 1.5 | 8.8 | –
6 | Cc1cc(Nc2ncnc3cnc(N4CCO[C@H](C)C4)nc23)ccc1Oc1ccc2c(c1)ncn2C [Example 265] | 0.0456 | ≥ 5 | 5.35 | 0.0168 | 0.0465 | 1.1 | 1.8 | –
7 | Cc1cc(Nc2ncnc3cnc(N4CCN[C@H](C(F)(F)F)C4)nc23)ccc1Oc1ccc2c(c1)ncn2C [Example 172, (S)—N-(3-methyl-4-((1-methyl-1H-benzo[d]imidazol-5-yl)oxy)phenyl)-6-(3-(trifluoromethyl)piperazin-1-yl)pyrimido[5,4-d]pyrimidin-4-amine] | 0.0352 | ≥ 5 | 8.92 | 0.0262 | 0.031 | 1.5 | 2 | –
8 | Cc1cc(Nc2ncnc3cnc(N4CCC[C@@](C)(O)C4)nc23)c(F)cc1Oc1ccc2c(c1)ncn2C [Example 218, (R)-1-(8-((2-fluoro-5-methyl-4-((1-methyl-1H-benzo[d]imidazol-5-yl)oxy)phenyl)amino)pyrimido[5,4-d]pyrimidin-2-yl)-3-methylpiperidin-3-ol] | 0.0403 | ≥ 5 | ≥ 10 | 0.0438 | 0.0416 | 1.5 | 2.4 | –
9 | Cc1cc(Nc2ncnc3cnc(N4CC5(C4)CC(C)(O)C5)nc23)ccc1Oc1ccc2c(c1)ncn2C [Example 156, 6-methyl-2-(8-((3-methyl-4-((1-methyl-1H-benzo[d]imidazol-5-yl)oxy)phenyl)amino)pyrimido[5,4-d]pyrimidin-2-yl)-2-azaspiro[3.3]heptan-6-ol] | 0.0052 | ≥ 5 | ≥ 10 | 0.0123 | 0.0064 | 2 | – | 26
10 | Cc1c(Oc2ccc3c(c2)ncn3C)ccc(Nc2ncnc3cnc(N(C)[C@H]4C[C@@](C)(O)C4)nc23)c1F [Example 116, (1s,3s)-3-((8-((2-fluoro-3-methyl-4-((1-methyl-1H-benzo[d]imidazol-5-yl)oxy)phenyl)amino)pyrimido[5,4-d]pyrimidin-2-yl)(methyl)amino)-1-methylcyclobutan-1-ol] | 0.0148 | ≥ 5 | 1.17 | 0.0278 | 0.0173 | 1.3 | 1.8 | –
11 | Cc1cc(Nc2ncnc3cnc(N4CCN[C@@H](C(F)(F)F)C4)nc23)ccc1Oc1ccc2c(c1)ncn2C [Example 182, (R)—N-(3-methyl-4-((1-methyl-1H-benzo[d]imidazol-5-yl)oxy)phenyl)-6-(3-(trifluoromethyl)piperazin-1-yl)pyrimido[5,4-d]pyrimidin-4-amine] | 0.0347 | ≥ 5 | 3.13 | 0.0177 | 0.0295 | 1.3 | 1.9 | –
12 | Cc1cc(Nc2ncnc3cnc(N4C[C@H](O)C5(CC5)C4)nc23)ccc1Oc1ccc2c(c1)ncn2C [Example 212, (R)-5-(8-((3-methyl-4-((1-methyl-1H-benzo[d]imidazol-5-yl)oxy)phenyl)amino)pyrimido[5,4-d]pyrimidin-2-yl)-5-azaspiro[2.4]heptan-7-ol] | 0.0229 | ≥ 5 | 2.41 | 0.0103 | 0.0128 | 2.8 | – | 31.4
13 | Cc1cc(Nc2ncnc3cnc(N(C)[C@H]4CCC[C@@H]4O)nc23)ccc1Oc1ccc2c(c1)ncn2C [Example 176, (1S,2S)-2-(methyl(8-((3-methyl-4-((1-methyl-1H-benzo[d]imidazol-5-yl)oxy)phenyl)amino)pyrimido[5,4-d]pyrimidin-2-yl)amino)cyclopentan-1-ol] | 0.0308 | ≥ 5 | 1.25 | 0.0254 | 0.0322 | 1.4 | 13.5 | –
14 | Cc1cc(Nc2ncnc3cnc(N4CC[C@H](C#N)C4)nc23)ccc1Oc1ccc2c(c1)ncn2C [Example 173, (S)-1-(8-((3-methyl-4-((1-methyl-1H-benzo[d]imidazol-5-yl)oxy)phenyl)amino)pyrimido[5,4-d]pyrimidin-2-yl)pyrrolidine-3-carbonitrile] | 0.0505 | ≥ 5 | ≥ 10 | 0.0226 | 0.0218 | 1.2 | 4.3 | –
15 | Cc1cc(Nc2ncnc3cnc(N4CC[C@@H](C(C)(C)O)C4)nc23)ccc1Oc1ccn2ncnc2c1 [Example 124, (R)-2-(1-(8-((4-([1,2,4]triazolo[1,5-a]pyridin-7-yloxy)-3-methylphenyl)amino)pyrimido[5,4-d]pyrimidin-2-yl)pyrrolidin-3-yl)propan-2-ol] | 0.0143 | ≥ 5 | 2.75 | 0.0648 | 0.016 | 1.4 | 10.3 | –
16 | Cn1cnc2cc(Oc3ccc(Nc4ncnc5cnc(N6CC[C@@H](CC#N)C6)nc45)cc3Cl)ccc21 [Example 134, (S)-2-(1-(8-((3-chloro-4-((1-methyl-1H-benzo[d]imidazol-5-yl)oxy)phenyl)amino)pyrimido[5,4-d]pyrimidin-2-yl)pyrrolidin-3-yl)acetonitrile] | – | ≥ 5 | ≥ 10 | 0.0085 | 0.0551 | 1.8 | 6.8 | –
